Molecules are shown by their SMILES.

Data set [1] is described as follows: PET/CT biodistribution in mice. The format is in vivo, male nude mice. The procedure: PET and CT scans were performed using a small animal Albira PET/SPECT/CT scanner (Bruker Corporation, Billerica, MA, USA). PET images were analyzed using PMOD Version 3.505 (PMOD Technologies Ltd., Zürich, Switzerland). PET/CT maximum intensity projections were constructed using Inveon Research Workplace (Siemens Medical Solutions USA, Inc., Malvern, PA, USA). Statistical analysis was performed on GraphPad Prism 8 (GraphPad Software, San Diego, CA, USA).
PET Image Acquisition: All mice were manipulated in accordance to the MD Anderson Cancer Center’s IACUC guidelines. Mice were anesthetized with 2% isoflurane using oxygen as a carrier. For both C60-[^64Cu]Cu(NOTA) and [^64Cu]Cu(NOTA), 6 male nude mice were injected on the bed with ~200 μCi of activity in 150 μL of saline through a tail vein catheter. At the start of injection, a 20-min dynamic PET scan was acquired using the Albira PET/SPECT/CT scanner with a 15 cm field of view (FOV). The actual injected dose was calculated by measuring the pre- and post-injection activity in the syringe using a CRC-15R dose calibrator (Capintec, Inc., Florham Park, NJ, USA). The data were binned into 20-s time frames for the first 5 min, 60-s frames for the next 5 min, and 5-min frames for the next 10 min. Static PET images were then recorded at 3 h and 24 h post-injection (p.i.) for 10 min. A static PET image at 48 h p.i. was recorded for 20 min for C60-[^64Cu]Cu(NOTA) only. Following all PET scans, two 3 min CT scans were performed to cover the whole mouse body with a total FOV of 12.6 cm (400 μA, 45 kV, 250 projections).
The PET images were reconstructed using the Maximum Likelihood Expectation Maximization method with 12 iterations. The CT images were reconstructed using the Filtered Back Projection method. Scatter, randoms, decay, and attenuation corrections were applied through the Albira software. Volumes-of-interest (VOIs) were drawn for the major organs on the decay-corrected PET images using PMOD, and injected doses were used to calculate percent of injected dose per cubic centimeter of tissue (%ID/cc). […]

Data set [2] can be described thus: Two-phase decay model of heart TAC (blood pharmacokinetics). The format is in vivo, male nude mice. The note with it: mice, tail vein. An excerpt: The PET images were reconstructed using the Maximum Likelihood Expectation Maximization method with 12 iterations. The CT images were reconstructed using the Filtered Back Projection method. Scatter, randoms, decay, and attenuation corrections were applied through the Albira software. Volumes-of-interest (VOIs) were drawn for the major organs on the decay-corrected PET images using PMOD, and injected doses were used to calculate percent of injected dose per cubic centimeter of tissue (%ID/cc). Errors in the averaged %ID/cc were reported as standard error of the mean (SEM). A non-linear regression analysis of the dynamic PET data for both C60-[^64Cu]Cu(NOTA) and [^64Cu]Cu(NOTA) was performed and fitted to a two-phase decay model to determine the blood half-life of each compound.
We also performed a non-linear regression analysis of the heart TAC data of both compounds using a two-phase decay model, which produced a p value of < 0.0001 by an extra sum-of-squares F test. The two-phase decay model consists of a distribution phase and an elimination phase. The fast distribution phase describes the rapid circulation of the material from the plasma to highly-perfused tissues, and the slow elimination phase describes the clearance of the material from the plasma and tissues through excretion. From this analysis, a blood half-life (t1/2) and rate constants (α, β) for each phase were determined along with the clearance rate (CL) and the area under the curve (AUC), which represents a normalized volume of distribution (Table 1).

For the compound `O=C([O-])CN1CCN(CC(=O)[O-])CCN(CC(=O)O)CC1.[64Cu+2]` [[^64Cu]Cu(NOTA)], the “period in which most of the material was cleared by renal excretion” value in data set [1] (PET) was “between 20 min and 3 h p.i”. Moreover, the “uptake / detected signal at 48 h p.i.” value in data set [1] (PET static scan, 48 h p.i., any organ) is “negligible”. For the same compound, the “uptake in the kidneys compared to other major organs” value in data set [1] (PET, 20 min p.i.) was “significant uptake”. For the same compound, in data set [2], the “Area under Curve (AUC)” value was 3.173 × 10^2 %ID·min/cc, the “Distribution Half-Life” value turned out to be 0.4975 min, the “Distribution Rate Constant (α)” value worked out at 1.393 min⁻¹ and the “Elimination Half-Life” value was 8.153 min. The “Elimination Rate Constant (β)” value in data set [2] turned out to be 0.08501 min⁻¹.

These data come from PMC7023239, “Evaluation of the Biodistribution of Serinolamide-Derivatized C60 Fullerene” (Nanomaterials, 2020).
